Assay results published in patent US20210278402A1, “METHOD FOR TESTING OF ANTIBIOTIC SUSCEPTIBILITY IN MICROORGANISMS” (MODULE INNOVATIONS PRIVATE LIMITED, priority 2018, published 2021).
In brackets after ≈: the same amount, converted by molar mass. Read-outs that look alike come from different tables or passages of the source.

Experiments:
K. pneumoniae [1] = test: Antibiotic susceptibility testing by the method of the present invention (AuNP-GOx-Ab nanoprobes, absorbance at 545 nm); format: cell-based; details: for MIC: Klebsiella pneumoniae, MIC = dilution showing the criterion % reduction compared to no antibiotics (34% levofloxacin, 23% amikacin), read-out: MIC obtained with the diagnostic method assay; for Interpretation of results of the present method: Patient two urine sample infected with K. pneumoniae, antibiotic at EUCAST breakpoint concentration of Table 1
Method: (§1) 250 μL of urine sample was mixed with 250 μL of 2× Mueller-Hinton broth in autoclaved Eppendorf tubes. Respective concentrations of antibiotics as recited in Table 1 were added in each tubes along with one tube without antibiotic which served as a control for monitoring the growth of bacteria. 7-10 μL of the nanoprobes (AuNP-GOx-Ab) prepared in the Example 2 above was added to the mixture and allowed to incubate at 37° C. for 90 minutes to allow growth of bacteria. The solution was then passed through a membrane filter with a pore size of about 450 nm diameter to separate the bacteria bound to the nanoprobes from the unbound ones. The bacteria bound nanoprobes (nanoprobe-bacteria complex) captured on the membrane surface were then recovered by injecting 250 μL of sodium acetate buffer (10 mM, pH 5.1) from the opposite direction.
(§2) 250 μL of the recovered bacteria-nanoprobe complexes were then incubated at 37° C. for 10 minutes with 50 μL glucose solution (final concentration 100 mM) for production of hydrogen peroxide. After 10 minutes, 150 μL of seed solution containing about 16 nM gold nanoparticles having about 5 nm size and 150 μL of 1.25 mM HAuCl4 solution was added to induce growth of the seed particles and left for 20 minutes to allow growth of the seed particle. Finally, the growth of seed nanoparticles and the intensity of colour formed were determined by recording an absorption spectrum for each sample. FIG. 8(a) provides graphic representation of UV-Visible spectra for antibiotic sensitivity test of patient urine samples with different antibiotics, according to an embodiment of the present invention.
The antibacterial susceptibility test of patient two urine sample containing K. pneumoniae towards the antibiotics ampicillin, gentamicin, levofloxacin and imipenem was performed as mentioned above.
(§3) MIC determination protocol was tested on other antibiotics-bacteria combinations as well and percent reduction criterion was determined for each pair from repeated tests.

K. pneumoniae [2] = test: CLSI reference method of microdilution; format: cell-based; details: for MIC: Klebsiella pneumoniae; for Interpretation by Microdilution: EUCAST breakpoints
E. coli [3] = test: Antibiotic susceptibility testing by the method of the present invention (AuNP-GOx-Ab nanoprobes, absorbance at 545 nm); format: cell-based; details: for Interpretation of results of the present method: Patient two urine sample infected with E. coli (10^4 CFU/mL), antibiotic at EUCAST breakpoint concentration of Table 1
Method: as §1
as §2, with “sample.” for “sample. FIG. 8(a) provides graphic representation of UV-Visible spectra for antibiotic sensitivity test of patient urine samples with different antibiotics, according to an embodiment of the present invention.”
as §3

E. coli [4] = test: CLSI reference method of microdilution; format: cell-based; details: for MIC: Escherichia coli
K. pneumoniae [5] = test: VITEK automated susceptibility test; format: cell-based; details: for MIC: Klebsiella pneumoniae, patient two urine sample infected with K. pneumoniae, read-out: MIC reported by VITEK
Description: (§4) The AST market has several products based on the method they employ for testing that include automated systems, discs, MIC strips and media. Most extensively used method to determine antibiotic susceptibility involve culture tests based on the phenotypic growth of the bacteria, which require three days to arrive at the conclusion (Puttaswamy S. et al., 2018). Although culture-based growth methods are the most widely used systems for AST, a few sophisticated high-end labs and hospitals employ automated test machines such as Vitek 2.0 from Biomeriux Technologies, Phoenix from BD etc. These instruments work on the measurement of light attenuation by optical scanner for growth/no growth of bacteria in micro-wells with different antibiotics.

E. faecalis [6] = test: CLSI reference method of microdilution; details: for MIC: Enterococcus faecalis, read-out: MIC reported by Microdilution
P. aeruginosa [7] = test: VITEK automated susceptibility test; format: cell-based; details: for MIC: Pseudomonas aeruginosa, patient two sample infected with P. aeruginosa, read-out: MIC reported by VITEK
Description: as §4

E. coli [8] = test: VITEK automated susceptibility test; format: cell-based; details: for MIC: Escherichia coli, read-out: MIC reported by VITEK
Description: as §4

P. aeruginosa [9] = test: CLSI reference method of microdilution; format: cell-based; details: for MIC: Pseudomonas aeruginosa, patient two sample infected with P. aeruginosa, read-out: MIC reported by Microdilution
E. faecalis [10] = test: Antibiotic susceptibility testing by the method of the present invention (AuNP-GOx-Ab nanoprobes, absorbance at 545 nm); format: cell-based; details: Patient two sample infected with E. faecalis, antibiotic at EUCAST breakpoint concentration of Table 1
Method: as §1
(§5) 250 μL of the recovered bacteria-nanoprobe complexes were then incubated at 37° C. for 10 minutes with 50 μL glucose solution (final concentration 100 mM) for production of hydrogen peroxide. […] Finally, the growth of seed nanoparticles and the intensity of colour formed were determined by recording an absorption spectrum for each sample. […]

[11] = system: multi-drug resistant P. aeruginosa; test: as above; format: cell-based; details: Patient two sample infected with multi-drug resistant P. aeruginosa, antibiotic at EUCAST breakpoint concentration of Table 1
Method: as §1, §5

[12] = glucose 100 mM, 37° C., 10 minutes
Method: Varying concentrations of GOx, namely, 6 mU, 10 mU and 30 mU and glucose (100 mM) were incubated at 37° C. for 10 minutes and the hydrogen peroxide produced was determined using a H2O2 assay kit (MAK165-SIGMA-ALDRICH).

[13] = Clinical isolate K. pneumoniae, read-out: MIC obtained with CLSI reference method of microdilution
[14] = Patient two urine sample infected with K. pneumoniae
[15] = patient two urine sample infected with K. pneumoniae, read-out: MIC reported by Microdilution
[16] = Patient one urine sample infected with E. coli
[17] = patient two urine sample infected with E. coli
[18] = Patient two sample infected with P. aeruginosa

NCC[C@H](O)C(=O)N[C@@H]1C[C@H](N)[C@@H](O[C@H]2O[C@H](CN)[C@@H](O)[C@H](O)[C@H]2O)[C@H](O)[C@H]1O[C@H]1O[C@H](CO)[C@@H](O)[C@H](N)[C@H]1O [Amikacin]
Interpretation by diagnostic method (K. pneumoniae [1]; Clinical isolate K. pneumoniae): Resistant | MIC (K. pneumoniae [1]; Clinical isolate K. pneumoniae): 128 µg/mL | Interpretation by CLSI reference method of microdilution (K. pneumoniae [2]; Clinical isolate K. pneumoniae): Resistant | MIC (K. pneumoniae [2]; [13]): 128 µg/mL (≈ 219 µM)

CC1(C)S[C@@H]2[C@H](NC(=O)[C@H](N)c3ccccc3)C(=O)N2[C@H]1C(=O)O [Ampicillin]
Interpretation of results of the present method (E. coli [3]): Sensitive | Interpretation of results of the present method (E. coli [3]; listed as ampicillin): sensitive | Interpretation of results of the present method (K. pneumoniae [1]): Resistant | Interpretation of results of the present method (K. pneumoniae [1]; listed as ampicillin): resistant | Interpretation by Microdilution (E. coli [4]; Patient two urine sample infected with E. coli, EUCAST breakpoints): Sensitive | MIC (K. pneumoniae [5]): > 16 µg/mL | Interpretation by VITEK (K. pneumoniae [5]; [14]): Resistant | MIC (K. pneumoniae [2]; [15]): 256 µg/mL (≈ 733 µM) | Interpretation by Microdilution (K. pneumoniae [2]; [14]): Resistant

C[C@@H](O)[C@H]1C(=O)N2C(C(=O)O)=C(SCCN=CN)C[C@H]12 [Imipenem]
MIC (E. coli [3]; Escherichia coli, Clinical isolate E. coli, MIC = dilution showing the criterion % reduction compared to no antibiotics (55% for imipenem), read-out: MIC obtained with the diagnostic method assay): 0.125 µg/mL | MIC (E. faecalis [6]): 0.5 µg/mL (≈ 1.67 µM) | MIC (E. coli [4]; Clinical isolate E. coli, read-out: MIC obtained with CLSI reference method of microdilution): 0.25 µg/mL (≈ 0.835 µM) | MIC (E. coli [4]; patient one urine sample infected with E. coli, read-out: MIC reported by Microdilution): 0.25 µg/mL (≈ 0.835 µM) | MIC (P. aeruginosa [7]): ≥ 16 µg/mL | MIC (K. pneumoniae [5]): ≤ 0.25 µg/mL | MIC (E. coli [8]; patient one urine sample infected with E. coli): ≤ 0.25 µg/mL | MIC (K. pneumoniae [2]; [15]): 0.125 µg/mL (≈ 0.418 µM) | MIC (P. aeruginosa [9]): ≥ 32 µg/mL

C[C@H]1COc2c(N3CCN(C)CC3)c(F)cc3c(=O)c(C(=O)O)cn1c23 [Levofloxacin]
MIC (concentration at which signal intensity shows 34% reduction against the control) (E. coli [3]; E. coli as printed in text, present method, 34% reduction criterion): 16 µg/mL | MIC (K. pneumoniae [1]; Clinical isolate K. pneumoniae): 16 µg/mL | MIC (E. coli [4]; patient two urine sample infected with E. coli, read-out: MIC reported by Microdilution): 64 µg/mL (≈ 177 µM) | MIC reported by Microdilution (E. coli [4]; [16]): 64 µg/mL (≈ 177 µM) | MIC (P. aeruginosa [7]): ≥ 8 µg/mL | MIC (E. coli [8]; [17]): ≥ 8 µg/mL | MIC reported by VITEK (E. coli [8]; [16]): >=8 μg/mL | MIC (K. pneumoniae [2]; [13]): 16 µg/mL (≈ 44.3 µM) | MIC (P. aeruginosa [9]): ≥ 32 µg/mL

O=C1CN(/N=C/c2ccc([N+](=O)[O-])o2)C(=O)N1 [Nitrofurantoin]
MIC (E. coli [8]; [17]): ≤ 32 µg/mL

CN[C@H](CC(C)C)C(=O)N[C@H]1C(=O)N[C@@H](CC(N)=O)C(=O)N[C@H]2C(=O)N[C@H]3C(=O)N[C@H](C(=O)N[C@H](C(=O)O)c4cc(O)cc(O)c4-c4cc3ccc4O)[C@H](O)c3ccc(c(Cl)c3)Oc3cc2cc(c3O[C@@H]2O[C@H](CO)[C@@H](O)[C@H](O)[C@H]2O[C@H]2C[C@](C)(N)[C@H](O)[C@H](C)O2)Oc2ccc(cc2Cl)[C@H]1O [Vancomycin]
Interpretation of results of the present method (E. faecalis [10]): Sensitive | Interpretation of results of the present method (E. faecalis [10]; listed as vancomycin): sensitive | MIC (E. faecalis [6]): 1 µg/mL (≈ 0.69 µM) | Interpretation by Microdilution (E. faecalis [6]; Patient two sample infected with E. faecalis, EUCAST breakpoints): Sensitive

Gentamicin
Interpretation of results of the present method (K. pneumoniae [1]): Sensitive | Interpretation of results of the present method (K. pneumoniae [1]; listed as gentamicin): sensitive | Interpretation of results of the present method [11]: Resistant | Interpretation of results of the present method ([11]; listed as gentamicin): resistant | Interpretation by VITEK (P. aeruginosa [7]; [18]): Resistant | MIC reported by VITEK (P. aeruginosa [7]; [18]): >=16 μg/mL | Interpretation by VITEK (K. pneumoniae [5]; [14]): Sensitive | MIC reported by VITEK (K. pneumoniae [5]; [14]): <=1 μg/mL | MIC reported by Microdilution (K. pneumoniae [2]; [14]): 0.5 µg/mL | Interpretation by Microdilution (K. pneumoniae [2]; [14]): Sensitive | MIC reported by Microdilution (P. aeruginosa [9]; [18]): >=32 μg/mL | Interpretation by Microdilution (P. aeruginosa [9]; Patient two sample infected with P. aeruginosa, EUCAST breakpoints): Resistant

glucose oxidase [GOx]
H2O2 generated ([12]; 6 mU GOx): 60.76 ± 7.6 µM | H2O2 generated ([12]; 10 mU GOx): 113.46 ± 48.1 µM | H2O2 generated ([12]; 30 mU GOx): 166.25 ± 5.3 µM
